Laboratory results from patent US20250236617A1, “BICYCLIC TETRAHYDROTHIAZEPINE DERIVATIVES” (Hoffmann-La Roche Inc., priority 2022, published 2025).

Tests used:
MV-3 RFP cells = test: T-cell-TCB-MV3 killing assay; assay type: cell-based; conditions: MV-3, 120 h, primary human T-cells + MCSP-TCB, 5 d; for Emax: 20 μM reference compound A1 = 100%, read-out: MSCP TCB killing MV-3 cells 5 d Emax; for EC50: read-out: MSCP TCB killing MV-3 cells 5 d EC50
Method: All culturing steps are executed at 5% CO2, 37° C. and 95% humidity.
MV-3 RFP cells are cultured in MV-3 medium (DMEM+10% FBS, 1× PenStrep and 0.5 μg/mL Puromycin) for at least 3 weeks. Cultured MV-3 cells at 80% confluency are washed once with PBS−− and trypsinized until detached. […] Cells are seeded with 100 μL/well into a 96-well plate (TTP, #92696), and placed for 40 minutes without moving at room temperature in order to achieve evenly distributed attachment of cells. Plates are then incubated until further use.
On the next day, expanded primary human T-cells are thawed and resuspended in T-cell medium to 4*10^6 cells/mL. For 3 hours, they are cultured in a 6-well plate with 6 mL per well at maximum. After culturing the T-cells, they are filtered through a cell strainer (Miltenyi Biotech, #130-041-407), counted again, and cell concentration is adjusted to 2*10^6 cells/mL.
MCSP-TCB or PBS are pre-diluted in T-cell medium (concentration depending on T-cell donor), 4 times more concentrated than the end-concentration. 60 μL/well of pre-dilutions are then distributed into a round bottom plate (Costar, #3799) according to plate layout. Compounds are added in a 9 pt dose response with the Tecan D300e Digital Dispenser, as well 4 times more concentrated than the end-concentration. DMSO concentration of all wells is adjusted to 0.8%, resulting in 0.2% as final concentration.
60 μL per well of T-cell suspension are added to the prepared round bottom plate and resuspended with a manual multichannel. 100 μL/well of the resuspended T-cell suspension including treatments are then transferred cautiously to the over-night cultured MV-3 cells according to plate layout. 100 μL T-cell medium only is added to the outer MV-3 wells only. Final compound DR is starting at 20 μM with a dilution factor of 3.333. Final TCB concentration is between […] and was determined for each T-cell donor individually by running TCB titrations. For each donor, a TCB concentration was chosen which corresponds to 10-20% of MV3 baseline cell killing in the absence of compound treatment. Positive control is the reference compound A1 which is added in a DR, as well as additional wells with only 20 μM. 20 μM of reference compound A1 represent the positive stimulator control, TCB only (DMSO wells) the neutral control.
After transfer of T-cells with treatment pre-dilutions, MV-3 cells are imaged by time-lapse microscopy using IncucyteZOOM™ (Essen BioScience, MI, USA). Imaging is performed every 3 hours for a total of 120 hours (10× objective, phase and red image channels, acquisition time 400 ms, Green/Red 4614 optical module). RFP object count per well is analysed in the IncucyteZOOM™ Software (Version 2019B Rev2) with a mask that was previously created and optimized for MV-3 cells. Raw data is exported as object count/well and values are normalized as % TCL compared to wells with MV-3 only, representing 100% growth and therefore 0% TCL.
Calculated % TCL values are analysed in Genedata Screener using Roche Normalization PCT_POS_CTRL with MCSP-TCB only set as Neutral Control and 20 μM of the reference compound A1 set as Stimulator Control/100%.

DGK α kinase = DGK α kinase (Homo sapiens (Human), UniProt P23743); test: In vitro DGK inhibition assay: ADP Glo run by Reaction Biology Corp., DGKalpha; assay type: biochemical; conditions: 2 nM enzyme, 500 uM DLG, 10-dose duplicate
DGK α kinase, sequence (P23743 whole entry): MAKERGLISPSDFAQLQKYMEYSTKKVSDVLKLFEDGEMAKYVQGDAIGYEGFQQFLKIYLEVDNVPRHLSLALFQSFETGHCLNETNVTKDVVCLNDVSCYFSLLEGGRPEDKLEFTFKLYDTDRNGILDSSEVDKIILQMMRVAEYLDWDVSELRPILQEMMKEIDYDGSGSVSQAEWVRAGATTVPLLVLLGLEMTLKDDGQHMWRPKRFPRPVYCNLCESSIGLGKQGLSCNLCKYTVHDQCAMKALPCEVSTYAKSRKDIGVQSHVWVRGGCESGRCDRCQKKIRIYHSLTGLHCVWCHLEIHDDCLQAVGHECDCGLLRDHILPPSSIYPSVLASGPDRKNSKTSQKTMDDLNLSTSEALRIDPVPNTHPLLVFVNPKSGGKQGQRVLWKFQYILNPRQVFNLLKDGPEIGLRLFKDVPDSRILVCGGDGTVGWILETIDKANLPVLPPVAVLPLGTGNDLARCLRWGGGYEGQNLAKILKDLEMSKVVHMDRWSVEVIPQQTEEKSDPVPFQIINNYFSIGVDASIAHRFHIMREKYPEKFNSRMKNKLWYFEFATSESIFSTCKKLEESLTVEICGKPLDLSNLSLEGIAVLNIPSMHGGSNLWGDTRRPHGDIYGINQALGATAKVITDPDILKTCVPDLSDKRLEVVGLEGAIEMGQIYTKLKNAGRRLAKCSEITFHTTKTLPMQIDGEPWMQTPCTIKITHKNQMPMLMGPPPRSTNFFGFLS
Method: (§1) DGK α and ζ kinases use ATP to phosphorylate the substrate 1,2-dilauroyl-sn-glycerol (DLG). ATP is converted to ADP as a result of this enzymatic reaction.
(§2) After the kinase reaction, an ATP-depletion reagent is added to terminate the kinase reaction and deplete any remaining ATP, leaving only ADP. Second, a detection reagent is added to simultaneously convert ADP to ATP and allow the newly synthesized ATP to be converted to light using a coupled luciferase/luciferin reaction.
(§3) DGK α and ζ kinase ADP Glo assays were ran by Reaction Biology Corp., 1 Great Valley Parkway, Suite 2, Malvern, 19355, PA, USA. Information provided by the service provider are the following: DGK α and ζ kinases were used at 2 nM final concentration. Reactions were carried out at 50 µM ATP. 500 uM of the substrate DLG (Dilauroyl-sn-glycerol) was used.

DGK ζ kinase = DGK ζ kinase (Homo sapiens (Human), UniProt Q13574); test: In vitro DGK inhibition assay: ADP Glo run by Reaction Biology Corp., DGKzeta; assay type: biochemical; conditions: 2 nM enzyme, 500 uM DLG, 10-dose duplicate
DGK ζ kinase, sequence (Q13574 whole entry): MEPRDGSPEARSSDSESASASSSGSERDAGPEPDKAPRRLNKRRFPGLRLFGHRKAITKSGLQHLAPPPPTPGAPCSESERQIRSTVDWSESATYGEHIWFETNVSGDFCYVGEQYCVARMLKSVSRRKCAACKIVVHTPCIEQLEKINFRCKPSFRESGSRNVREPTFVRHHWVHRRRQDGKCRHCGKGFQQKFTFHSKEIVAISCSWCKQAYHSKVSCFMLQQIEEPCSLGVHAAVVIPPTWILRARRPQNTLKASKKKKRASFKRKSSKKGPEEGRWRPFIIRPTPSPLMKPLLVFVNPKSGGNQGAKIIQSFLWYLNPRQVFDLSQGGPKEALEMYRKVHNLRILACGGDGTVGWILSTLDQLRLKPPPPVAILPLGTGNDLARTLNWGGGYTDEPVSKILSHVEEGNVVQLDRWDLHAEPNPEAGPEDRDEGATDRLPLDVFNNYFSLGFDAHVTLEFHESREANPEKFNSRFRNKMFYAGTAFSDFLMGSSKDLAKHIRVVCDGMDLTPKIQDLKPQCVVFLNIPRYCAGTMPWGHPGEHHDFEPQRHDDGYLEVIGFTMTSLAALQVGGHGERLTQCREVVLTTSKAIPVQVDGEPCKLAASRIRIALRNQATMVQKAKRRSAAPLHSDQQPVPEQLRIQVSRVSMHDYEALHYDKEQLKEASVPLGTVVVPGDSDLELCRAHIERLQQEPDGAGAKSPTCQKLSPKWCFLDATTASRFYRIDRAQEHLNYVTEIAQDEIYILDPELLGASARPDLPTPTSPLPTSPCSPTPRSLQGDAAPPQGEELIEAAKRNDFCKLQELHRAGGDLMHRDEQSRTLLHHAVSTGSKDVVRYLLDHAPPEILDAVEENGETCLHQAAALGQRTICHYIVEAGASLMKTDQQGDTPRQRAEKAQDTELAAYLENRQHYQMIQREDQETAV
Method: as §1, §2, §3

Compound	Emax (MV-3 RFP cells)	EC50 (MV-3 RFP cells)	IC50 (DGK α kinase)	IC50 (DGK ζ kinase)
COc1ccc(-c2ccc(CN3C(=O)[C@@H](N)CS(=O)(=O)c4cc(F)c(-c5cnc(C)c(C)c5)cc43)cc2)cc1 [Example 28, (3R)-3-amino-7-(5,6-dimethyl-3-pyridyl)-8-fluoro-5-[[4-(4-methoxyphenyl)phenyl]methyl]-1,1-dioxo-2,3-dihydro-1λ6,5-benzothiazepin-4-one]	89%	69 nM	–	–
CC(C)(C)c1cncc(-c2cc3c(cc2F)S(=O)(=O)C[C@H](N)C(=O)N3Cc2ccc(Cl)cc2)c1 [Example 2, (3R)-3-amino-7-(5-tert-butyl-3-pyridyl)-5-[(4-chlorophenyl)methyl]-8-fluoro-1,1-dioxo-2,3-dihydro-1λ6,5-benzothiazepin-4-one]	85%	78 nM	–	–
CC(C)(c1cncc(-c2cc3c(cc2F)S(=O)(=O)C[C@H](N)C(=O)N3Cc2ccc(-c3noc(C(F)(F)F)n3)cc2)c1)S(C)(=O)=O [Example 25, (3R)-3-amino-8-fluoro-1,1-diketo-7-[5-(1-mesyl-1-methyl-ethyl)-3-pyridyl]-5-[4-[5-(trifluoromethyl)-1,2,4-oxadiazol-3-yl]benzyl]-2,3-dihydro-1λ6,5-benzothiazepin-4-one]	86%	841 nM	–	–
CC(C)(C)c1cnnc(-c2cc3c(cc2F)S(=O)(=O)C[C@H](N)C(=O)N3Cc2ccc(Cl)cc2)n1 [Example 11, (3R)-3-amino-7-(5-tert-butyl-1,2,4-triazin-3-yl)-5-[(4-chlorophenyl)methyl]-8-fluoro-1,1-dioxo-2,3-dihydro-1λ6,5-benzothiazepin-4-one]	118%	134 nM	–	–
CC(C)(C#N)c1cncc(-c2cc3c(cc2F)S(=O)(=O)C[C@H](N)C(=O)N3Cc2ccc(-c3noc(C(F)(F)F)n3)cc2)c1 [Example 23, 2-[5-[(3R)-3-amino-8-fluoro-1,1,4-triketo-5-[4-[5-(trifluoromethyl)-1,2,4-oxadiazol-3-yl]benzyl]-2,3-dihydro-1λ6,5-benzothiazepin-7-yl]-3-pyridyl]-2-methyl-propionitrile]	–	–	372 nM	310 nM
